# US8772319B2 (priority 2004, dated 2014)
# Read-outs that look alike come from different tables or passages of the source.
# Key:
# [1] = target: T1, D2 receptor (Homo sapiens, UniProt P14416); test: cell-based; settings: for IC50: read-out: D2 Antagonist activity IC50
# T1 construct: expressed in transfected cells; host or cells: CHOp- cells (CHOp-D2)
# [2] = target: T2, D1 receptor (Homo sapiens, UniProt P21728); test: D1 receptor binding, LHD1 cells, [3H]SCH 23,390
# T2 construct: expressed in transfected cells; host or cells: LHD1 cells
# [3] = target: T3, human dopamine transporter (hDAT) (Homo sapiens, UniProt Q01959); test: biochemical; type: binding; settings: for Binding Ratios NET/DAT / Binding Ratios SERT/DAT: Table 5
# [4] = target: T4, D3 receptor (Homo sapiens, UniProt P35462); test: Inhibition of quinpirole-stimulated mitogenesis ([3H]thymidine incorporation), CHOp-D3 cells; type: cell-based
# T4 construct: expressed in transfected cells; host or cells: CHOp- cells (CHOp-D3)
# [5] = target: T5, 5-HT1A receptor (Homo sapiens, UniProt P08908); test: 5-HT1A receptor binding, HA7 cells, [3H]8-OH-DPAT; settings: for binding for 5-HT1A: Table 7
# T5 construct: expressed in transfected cells; host or cells: HA7 cells
# T5 sequence (P08908 1-422): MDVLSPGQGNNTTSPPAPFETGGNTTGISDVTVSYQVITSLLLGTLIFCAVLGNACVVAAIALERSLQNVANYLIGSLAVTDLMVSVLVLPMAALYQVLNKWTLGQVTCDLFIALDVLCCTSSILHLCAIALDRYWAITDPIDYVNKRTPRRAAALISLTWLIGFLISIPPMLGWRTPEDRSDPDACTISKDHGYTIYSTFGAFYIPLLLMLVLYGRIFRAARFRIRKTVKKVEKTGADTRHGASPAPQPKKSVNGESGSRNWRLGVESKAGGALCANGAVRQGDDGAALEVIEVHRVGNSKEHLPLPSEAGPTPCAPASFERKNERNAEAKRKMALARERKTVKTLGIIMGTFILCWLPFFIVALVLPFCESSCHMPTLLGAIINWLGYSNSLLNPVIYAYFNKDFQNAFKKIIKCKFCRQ
# [6] = tested on: male Swiss-Webster mice; test: Cocaine/compound interaction study on locomotor activity; type: in vivo, mouse; settings: for Attenuation of cocaine-induced LMA: 20 mg/kg of cocaine
# [7] = target: T3, human dopamine transporter (hDAT); test: cell-based; settings: for IC50: Reuptake Inhibition [3H]DA IC50, Table 6; for Discrimination Ratios (DR) [3H]DA reuptake/DAT binding: Table 6
# [8] = target: T6, 5-HT2C receptor (Rattus norvegicus, UniProt P08909); test: 5-HT2C receptor binding, NIH-3T3-P cells, [3H]mesulergine
# T6 construct: expressed in transfected cells; host or cells: NIH-3T3-P cells
# T6 sequence (P08909 33-460): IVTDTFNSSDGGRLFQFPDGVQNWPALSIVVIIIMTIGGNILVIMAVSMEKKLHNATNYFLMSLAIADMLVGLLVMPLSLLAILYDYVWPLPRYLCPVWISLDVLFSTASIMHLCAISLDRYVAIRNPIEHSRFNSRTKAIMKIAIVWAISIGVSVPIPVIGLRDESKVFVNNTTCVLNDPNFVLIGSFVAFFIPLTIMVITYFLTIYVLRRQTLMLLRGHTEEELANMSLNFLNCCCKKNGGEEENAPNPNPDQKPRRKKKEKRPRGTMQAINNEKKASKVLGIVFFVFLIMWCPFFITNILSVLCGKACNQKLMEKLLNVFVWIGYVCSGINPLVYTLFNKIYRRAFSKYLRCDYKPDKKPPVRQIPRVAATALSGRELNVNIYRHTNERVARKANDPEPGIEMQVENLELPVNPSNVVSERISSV
# [9] = target: T7, human serotonin transporter (hSERT) (Homo sapiens, UniProt P31645); test: cell-based; settings: Reuptake Inhibition [3H]5-HT IC50, Table 6
# [10] = target: T7, human serotonin transporter (hSERT); test: biochemical; settings: Table 5, read-out: SERT binding affinity Ki
# [11] = target: T8, human norepinephrine transporter (hNET) (Homo sapiens, UniProt P23975); test: biochemical; settings: Table 5; [125I]RTI-55; oxalate salts; read-out: NET binding affinity Ki
# [12] = target: T1, D2 receptor; test: D2 receptor binding, CHOp- cells, [3H]YM-09151-2
# [13] = target: T4, D3 receptor; test: D3 receptor binding, CHOp- cells, [3H]YM-09151-2
# [14] = target: T9, 5-HT2A receptor (Rattus norvegicus, UniProt P14842); test: 5-HT2A receptor binding, NIH-3T3-GF6 cells, [3H]ketanserin
# T9 construct: expressed in transfected cells; host or cells: NIH-3T3-GF6 cells
# [15] = target: T8, human norepinephrine transporter (hNET); test: cell-based; settings: Table 6; read-out: Reuptake Inhibition [3H]NE IC50
# [16] = tested on: male Swiss-Webster mice; test: Locomotor activity, compound alone, 1-h session; type: in vivo, mouse; settings: Table 8; mouse, IP, ligand alone, 1-h session
# Protocol: (§1) 3. Locomotor Activity. […] Panels of infrared beams (16 beams) and corresponding photodetectors were located in the horizontal direction along the sides of each activity chamber. […] Just prior to placement in the apparatus, all mice received a saline injection IP. In all studies, horizontal activity (interruption of 1 photocell beam) was measured for 1-h within 10-min periods. Testing was conducted with one mouse per activity chamber. […] Plot the mean (±SEM) maximal stimulant activity (total counts in the 30 min period divided by 3) vs dose. Perform a log10 transformation of the 30 min period average counts for individual subjects to homogenize variances for subsequent analyses. […] Fit the 30 min period average counts across subjects to a function of log10 dose using least-squares curve-fitting analyses (i.e. TableCurve software from Jandel). Estimate the maximum effect from the resultant dose-response curve. […] Determine the ED50 (dose that produces ½ maximal stimulant activity) from a linear regression analysis of the ascending portion (up to the dose that produces a maximal effect) of the curve. […] Plot the mean (±SEM) activity (total counts in the 30 min period divided by 3) vs dose. Perform a log10 transformation of the 30 min period average counts for individual subjects to homogenize variances for subsequent analyses. Conduct an ANOVA and contrast (specified a priori) each dose of the test compound to the vehicle to determine significant (p<0.05) dose effects. Conduct a linear least-squares regression analysis; regress the min period average counts across subjects over the descending portion of the curve against the log10 dose of the test compound. […] Perform a log10 transformation of the 30 min period average counts for individual subjects to homogenize variances for subsequent analyses. […] Conduct a linear least-squares regression analysis; regress the 30 min period average counts across subjects over the descending portion of the curve against the log10 dose of the test compound. […] Locomotor Activity 8-hour time course/dose response study. […] A panel of infrared beams (16 beams) and corresponding photodetectors were located in the horizontal direction along the sides of each activity chamber. A 7.5-W incandescent light above each chamber provided dim illumination. Fans provided an 80-dB ambient noise level within the chamber. […] In all studies, horizontal activity (interruption of photocell beams) was measured for 8-h within 10-min periods, beginning at 0800 hrs (2 hours after lights on). Testing was conducted with one mouse per activity chamber. Compound alone study.
# [17] = tested on: male Swiss-Webster mice; test: Locomotor activity 8-hour time course/dose response study
# Protocol: as §1
# T9 sequence (P14842 whole entry): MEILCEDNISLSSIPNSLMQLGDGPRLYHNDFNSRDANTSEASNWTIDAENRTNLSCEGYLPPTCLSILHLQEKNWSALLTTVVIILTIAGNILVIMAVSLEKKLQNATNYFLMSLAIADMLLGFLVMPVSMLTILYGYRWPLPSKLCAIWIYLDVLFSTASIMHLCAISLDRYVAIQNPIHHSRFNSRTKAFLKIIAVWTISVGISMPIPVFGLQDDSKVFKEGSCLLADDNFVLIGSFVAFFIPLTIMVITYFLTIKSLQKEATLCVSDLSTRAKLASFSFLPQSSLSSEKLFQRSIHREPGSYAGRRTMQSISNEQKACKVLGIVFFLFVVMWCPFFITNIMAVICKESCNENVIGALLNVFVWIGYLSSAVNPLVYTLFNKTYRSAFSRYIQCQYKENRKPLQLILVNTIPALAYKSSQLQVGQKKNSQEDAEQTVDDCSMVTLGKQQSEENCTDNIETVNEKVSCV
# T8 sequence (P23975 whole entry): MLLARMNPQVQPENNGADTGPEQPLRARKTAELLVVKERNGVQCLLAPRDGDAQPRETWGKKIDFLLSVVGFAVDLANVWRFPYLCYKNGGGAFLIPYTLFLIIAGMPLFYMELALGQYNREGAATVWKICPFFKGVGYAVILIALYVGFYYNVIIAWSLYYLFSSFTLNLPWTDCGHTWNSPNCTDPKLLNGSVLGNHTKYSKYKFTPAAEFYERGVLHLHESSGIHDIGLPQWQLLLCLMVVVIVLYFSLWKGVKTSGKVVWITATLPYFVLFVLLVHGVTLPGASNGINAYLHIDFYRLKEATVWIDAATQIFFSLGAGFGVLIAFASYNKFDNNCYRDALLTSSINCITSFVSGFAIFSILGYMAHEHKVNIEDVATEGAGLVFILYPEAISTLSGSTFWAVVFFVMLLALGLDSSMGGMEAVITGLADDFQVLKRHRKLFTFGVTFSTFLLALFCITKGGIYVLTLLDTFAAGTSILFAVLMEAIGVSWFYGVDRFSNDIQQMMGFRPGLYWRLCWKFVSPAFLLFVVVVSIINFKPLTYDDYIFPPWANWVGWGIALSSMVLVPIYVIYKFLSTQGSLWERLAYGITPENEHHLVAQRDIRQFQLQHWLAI
# T2 sequence (P21728 whole entry): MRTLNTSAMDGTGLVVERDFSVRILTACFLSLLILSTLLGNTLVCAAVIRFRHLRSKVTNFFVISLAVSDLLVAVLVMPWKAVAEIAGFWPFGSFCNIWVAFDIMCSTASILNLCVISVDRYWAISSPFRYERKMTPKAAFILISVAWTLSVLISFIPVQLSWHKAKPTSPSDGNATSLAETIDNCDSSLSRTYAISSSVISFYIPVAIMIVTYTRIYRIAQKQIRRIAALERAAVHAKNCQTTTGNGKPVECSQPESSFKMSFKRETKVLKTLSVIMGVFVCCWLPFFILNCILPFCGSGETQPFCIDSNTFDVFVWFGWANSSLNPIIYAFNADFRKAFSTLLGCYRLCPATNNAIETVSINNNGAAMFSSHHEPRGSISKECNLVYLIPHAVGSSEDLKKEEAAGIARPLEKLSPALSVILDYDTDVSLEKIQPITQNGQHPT
# T1 sequence (P14416 whole entry): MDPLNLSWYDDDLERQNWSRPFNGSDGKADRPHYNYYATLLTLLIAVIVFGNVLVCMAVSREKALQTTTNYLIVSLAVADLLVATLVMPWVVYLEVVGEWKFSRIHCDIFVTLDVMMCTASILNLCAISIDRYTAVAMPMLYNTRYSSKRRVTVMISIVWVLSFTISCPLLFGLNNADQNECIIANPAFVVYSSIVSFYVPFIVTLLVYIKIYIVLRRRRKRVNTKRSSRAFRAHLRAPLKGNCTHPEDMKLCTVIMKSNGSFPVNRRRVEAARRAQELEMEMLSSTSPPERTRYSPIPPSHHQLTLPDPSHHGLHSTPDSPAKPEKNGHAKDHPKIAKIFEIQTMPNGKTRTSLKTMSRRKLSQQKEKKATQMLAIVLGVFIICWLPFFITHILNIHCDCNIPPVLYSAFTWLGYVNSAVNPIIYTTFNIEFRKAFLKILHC
# T4 sequence (P35462 whole entry): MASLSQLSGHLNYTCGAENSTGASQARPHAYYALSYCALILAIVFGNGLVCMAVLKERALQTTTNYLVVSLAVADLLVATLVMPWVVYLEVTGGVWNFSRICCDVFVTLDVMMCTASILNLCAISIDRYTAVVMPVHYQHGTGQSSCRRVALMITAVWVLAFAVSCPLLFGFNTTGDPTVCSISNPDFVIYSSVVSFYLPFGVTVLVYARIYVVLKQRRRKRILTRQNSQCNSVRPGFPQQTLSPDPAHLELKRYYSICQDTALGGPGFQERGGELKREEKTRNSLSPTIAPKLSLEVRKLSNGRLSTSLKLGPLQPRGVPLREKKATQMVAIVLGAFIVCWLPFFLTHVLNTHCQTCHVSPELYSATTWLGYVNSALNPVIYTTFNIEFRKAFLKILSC
# T3 sequence (Q01959 whole entry): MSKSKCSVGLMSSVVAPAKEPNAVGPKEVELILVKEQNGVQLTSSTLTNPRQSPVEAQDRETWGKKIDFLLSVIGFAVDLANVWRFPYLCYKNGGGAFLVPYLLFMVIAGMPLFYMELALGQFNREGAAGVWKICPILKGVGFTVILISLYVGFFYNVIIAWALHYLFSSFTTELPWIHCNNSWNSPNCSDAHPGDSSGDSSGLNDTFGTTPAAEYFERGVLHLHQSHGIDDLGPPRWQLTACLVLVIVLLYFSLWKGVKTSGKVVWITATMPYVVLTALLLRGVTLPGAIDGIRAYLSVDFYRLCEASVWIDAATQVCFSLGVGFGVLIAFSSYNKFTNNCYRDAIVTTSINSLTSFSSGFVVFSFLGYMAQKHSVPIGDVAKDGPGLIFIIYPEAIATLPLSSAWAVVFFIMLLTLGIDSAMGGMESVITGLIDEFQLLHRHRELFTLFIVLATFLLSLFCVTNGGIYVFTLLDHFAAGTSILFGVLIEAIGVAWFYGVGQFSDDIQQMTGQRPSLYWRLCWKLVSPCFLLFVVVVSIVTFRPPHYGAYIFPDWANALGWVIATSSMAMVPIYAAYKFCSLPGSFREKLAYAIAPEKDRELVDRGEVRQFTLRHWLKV
# T7 sequence (P31645 whole entry): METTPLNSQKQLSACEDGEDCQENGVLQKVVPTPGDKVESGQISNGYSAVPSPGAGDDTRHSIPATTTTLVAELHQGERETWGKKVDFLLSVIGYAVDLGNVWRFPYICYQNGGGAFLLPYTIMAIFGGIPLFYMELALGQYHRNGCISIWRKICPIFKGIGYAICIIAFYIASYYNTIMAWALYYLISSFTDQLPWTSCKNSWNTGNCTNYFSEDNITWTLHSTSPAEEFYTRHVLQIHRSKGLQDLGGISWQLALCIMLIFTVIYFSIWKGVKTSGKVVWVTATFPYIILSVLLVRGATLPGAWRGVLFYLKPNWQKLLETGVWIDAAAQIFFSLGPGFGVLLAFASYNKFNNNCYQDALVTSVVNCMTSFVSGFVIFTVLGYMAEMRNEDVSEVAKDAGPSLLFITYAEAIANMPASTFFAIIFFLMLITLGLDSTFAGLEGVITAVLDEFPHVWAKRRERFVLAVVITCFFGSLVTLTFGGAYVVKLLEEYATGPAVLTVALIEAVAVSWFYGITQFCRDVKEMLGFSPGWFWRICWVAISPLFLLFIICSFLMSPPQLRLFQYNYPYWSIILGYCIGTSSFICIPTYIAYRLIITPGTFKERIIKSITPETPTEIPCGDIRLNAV
SMILES,IC50 [1] [µM],Ki [2] [µM],Ki [3] [µM],Binding Ratios NET/DAT [3],Binding Ratios SERT/DAT [3],IC50 [4] [µM],Ki [5] [µM],binding for 5-HT1A [5],Attenuation of cocaine-induced LMA [6],IC50 [7] [µM],Discrimination Ratios (DR) [3H]DA reuptake/DAT binding [7],Ki [8] [µM],IC50 [9] [µM],"Ki ([10]; [125I]RTI-55, oxalate salts) [µM]",Ki [11] [µM],Ki [12] [µM],Ki [13] [µM],Ki [14] [µM],IC50 [15] [µM],further results
"COc1ccccc1N1CCN(CCCCOC(c2ccc(F)cc2)c2ccc(F)cc2)CC1 [Compound 35, 1-(2-Methoxyphenyl)-4-[4-[bis(4-fluorophenyl)methoxy]butyl]piperazine]",0.0844,0.777 ± 0.185,0.0262 ± 0.0025,3.5,9.7,0.0567,0.0349 ± 0.0067,moderate binding,Attenuation,0.301 ± 0.016,11.5,3 ± 0.0731,1.23 ± 0.024,0.255 ± 0.089,0.092 ± 0.011,0.134 ± 0.0217,0.118 ± 0.0319,0.698 ± 0.204,0.176 ± 0.079,
"Fc1ccc(C(OCCCCN2CCN(c3ccccn3)CC2)c2ccc(F)cc2)cc1 [Compound 39, 1-[4-[Bis(4-fluorophenyl)methoxy]butyl]-4-pyridin-2-ylpiperazine]",,0.597 ± 0.0194,0.0084 ± 0.004,12.3,>1190,0.955,0.0535 ± 0.00862,moderate binding,Attenuation,0.386 ± 0.055,46,3.45 ± 1.08,,,0.103 ± 0.037,0.282 ± 0.0677,0.453 ± 0.163,0.498 ± 0.0479,2.23 ± 0.71,"D2 functional activity, marked agonist (footnote d) ([1]; Table 7, CHOp-D2 cells, [3H]thymidine incorporation, agonist): 196 ± 62.8^d nM; ED50, dose producing 1/2 maximal stimulant activity (S, stimulation) [16]: no activity; AD50, dose attenuating cocaine-induced stimulation by 50% ([6]; Table 8, ligand-cocaine interaction study, 20 mg/kg cocaine IP): 62.1 mg/kg; ED50 ([17]; Mus musculus, ip, 8 h, read-out: ED50, dose producing 1/2 maximal stimulant activity (S, stimulation)): 38 mg/kg; ME/CME, Maximal Effect/Cocaine Maximal Effect ([17]; Table 9, 8 hours): >0.35; mode of action ([17]; Table 9, ligand alone study, 8 hours): biphasic; ID50, dose producing 1/2 maximal depressant activity (I, inhibition) ([17]; Table 9, mouse, IP, 8 hours): 60.3/I^e,i mg/kg; IC50 ([9]; bound given in μM): > 10 µM; Ki ([10]; bound given in μM): > 10 µM"
"O=C(c1ccccc1)N1CCN(CCCCOC(c2ccc(F)cc2)c2ccc(F)cc2)CC1 [Compound 40, 1-Benzoyl-4-[1-[bis(4-fluorophenyl)methoxy]-4-butyl]piperazine]",0.183,,0.0197 ± 0.0025,18.5,4.4,0.222,1.56 ± 0.271,,,0.64 ± 0.24,32.5,,2.17 ± 0.37,0.087 ± 0.043,0.365 ± 0.069,,,,0.032 ± 0.01,"Ki ([2]; Table 7, LHD1 cells, [3H]SCH 23,390, read-out: D1 Affinity Ki): 6.64 ± 0.313 µM; Ki ([8]; Table 7, rat receptors, [3H]mesulergine, read-out: 5-HT2C Affinity Ki): 4.64 ± 0.586 µM; Ki ([12]; Table 7, CHOp- cells, [3H]YM-09151-2, read-out: D2 Affinity Ki): 0.0955 ± 0.0197 µM; Ki ([13]; Table 7, CHOp- cells, [3H]YM-09151-2, read-out: D3 Affinity Ki): 0.119 ± 0.0498 µM; Ki ([14]; Table 7, rat receptors, NIH-3T3-GF6 cells, [3H]ketanserin, read-out: 5-HT2A Affinity Ki): 4.8 ± 2.09 µM"
